Assay results as given in US20110306606A1, “NOVEL 2,6-SUBSTITUTED-3-NITROPYRIDINE DERIVATIVE, METHOD FOR PREPARING SAME, AND PHARMACEUTICAL COMPOSITION INCLUDING SAME” (priority 2008, published 2011).

Assays:
[1] = system: Osteoblasts (Calvarial cells); test: Alkaline phosphatase (ALP) activity in osteoblasts (Calvarial cells); assay type: cell-based, mice; details: Mus musculus, 72 h; 1 μM compound, 3 days, Calvarial cell; read-out: ALP activity (1 μM, % of Control) Calvarial cell
How it was run: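 Primary calvarial osteoblasts or MC3T3-E1 cells in α-MEM with 10% FBS were treated with 1 μM compound, against a 0.1% DMSO vehicle. Cell lysates were incubated with p-nitrophenylphosphate at 37° for 30 minutes and read at 405 nm. ALP activity was expressed as p-nitrophenol/μg protein/min and reported as % change versus vehicle.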

[2] = system: Osteoblasts (Calvarial cells); details: ICR, mouse, 72 h, 1 μM
[3] = system: formation of osteoclasts in co-culture of bone marrow cells and osteoblasts; test: Osteoclastogenesis inhibition via co-culture system (TRAP staining); assay type: cell-based, mice; details: Mus musculus, Osteoclast, 168 h; 1 μM compound, 7 days co-culture, TRAP-positive multinucleated osteoclasts vs vehicle control
How it was run: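 Bone marrow cells from male ddY mice were co-cultured with osteoblasts for 7 days in α-MEM/10% FBS with 10^−8 M 1α,25-dihydroxyvitamin D3 and dexamethasone. Compound was present at 1 μM final and refreshed every 2–3 days. TRAP-positive cells with 6–7 nuclei were counted, with % inhibition relative to DMSO vehicle (n=4).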

MC3T3-E1 cells = test: Alkaline phosphatase (ALP) activity in MC3T3-E1 cells; assay type: cell-based; details: Mus musculus, 72 h; 1 μM compound, 3 days, MC3T3-E1 cell; read-out: ALP activity (1 μM, % of Control) MC3T3-E1 cell
Method: Differentiation and activity of osteoblasts were indirectly evaluated by measuring an ALP activity having a close relationship with osteogenesis.
Osteoblasts (Calvarial cells) prepared in Experimental Example 1 and MC3T3-E1 cells (available from RIKEN Cell Bank, Japan) were collected in α-MEM supplemented with 10% FBS, followed by cell counting. The cells were dispensed into 24-well cultureware at a density of 2×10^4 cells/well. After culturing of the cells for 24 hours, the culture media were discarded and replaced with fresh media in which test compounds were diluted to a concentration of 1 μM (1 mL/well). In addition, the vehicle control group containing 0.1% DMSO was also treated. […] When the experiment was terminated, the supernatant was removed and the cells were washed three times with cold phosphate buffer at 4°. 0.2% Triton X-100 was added to the washed cells which were then subjected to three cycles of freezing at −70° and thawing at room temperature for the complete lysis of cells. The cell extracts were pooled and centrifuged to collect the cell supernatant which was used for the measurement of ALP activity and proteins. The protein concentration was measured using a BCA assay kit (manufactured by Sigma-Aldrich). For the measurement of ALP activity, p-nitrophenylphosphate was added to the cell supernatant which was then incubated at 37° for 30 minutes, and the reaction was terminated with the addition of 50 μL of 0.2N sodium hydroxide. The standard curve was plotted at the absorbance of 405 nm using p-nitrophenol as a standard material and then the absorbance of test materials thus reacted was measured to determine the production amount of p-nitrophenol.
The ALP activity was calculated by dividing the amount of p-nitrophenol produced from each test material by the protein amount and the reaction time. Therefore, the unit of ALP activity was given in terms of p-nitrophenol/μg protein/min. The results are given in Tables 28-1 and 28-2 where the ALP activity unit of each test material was given in terms of % change through the comparison between the individual test materials and the vehicle control group.

Compound | activity at 1 µM [1] [%] | Cell viability (%) Calvarial cell [2] [%] | inhibition at 1 µM [3] [%] | activity at 1 µM (MC3T3-E1 cells) [%]
Cc1ccc(Nc2nc(NCCCn3ccnc3)ccc2[N+](=O)[O-])cc1 [Compound 9, 2-(4-methylphenylamino)-6-[(3-imidazol-1-yl)propylamino]-3-nitropyridine] | 129 | 121 | 93 | 175
COc1ccc(Nc2nc(NCc3ccncc3)ccc2[N+](=O)[O-])cc1 [Compound 22, 2-(4-methoxyphenylamino)-6-[(4-pyridyl)methylamino]-3-nitropyridine] | 121 | 92 |  | 123
CC(C)(C)c1ccc(Nc2nc(NCCCn3ccnc3)ccc2[N+](=O)[O-])cc1 [Compound 39, 2-[4-(t-butyl)phenylamino]-6-[(3-imidazol-1-yl)propylamino]-3-nitropyridine] |  | 111 | 98 | 175
CNc1ccc([N+](=O)[O-])c(Nc2ccc(C#N)cc2)n1 [Compound 45, 2-(4-cyanophenylamino)-6-(methylamino)-3-nitropyridine] | 133 | 89 |  | 124
N#Cc1ccc(Nc2nc(N3CCC(O)CC3)ccc2[N+](=O)[O-])cc1 [Compound 47, 2-(4-cyanophenylamino)-6-(4-hydroxypiperidino)-3-nitropyridine] | 111 | 88 |  | 117
CC(C)c1nccn1-c1ccc([N+](=O)[O-])c(Nc2ccc(C#N)cc2)n1 [Compound 49, 2-(4-cyanophenylamino)-6-[(2-isopropyl)imidazol-1-yl]-3-nitropyridine] | 112 | 96 |  | 122
O=[N+]([O-])c1ccc(NCc2ccncc2)nc1Nc1ccc(-n2ccnc2)cc1 [Compound 94, 2-[4-(imidazol-1-yl)phenylamino]-6-[(4-pyridyl)methylamino]-3-nitropyridine] |  | 85 | 93 | 134
O=[N+]([O-])c1ccc(NCCCn2ccnc2)nc1Nc1ccc(-n2ccnc2)cc1 [Compound 95, 2-[4-(imidazol-1-yl)phenylamino]-6-[(3-imidazol-1-yl)propylamino]-3-nitropyridine] | 138 | 93 |  | 185
CC(=O)c1cccc(Nc2nc(NCc3cccnc3)ccc2[N+](=O)[O-])c1 [Compound 102, 2-(3-acetylphenylamino)-6-[(3-pyridyl)methylamino]-3-nitropyridine] | 122 | 92 |  | 126
CC(=O)c1cccc(Nc2nc(NCc3ccncc3)ccc2[N+](=O)[O-])c1 [Compound 103, 2-(3-acetylphenylamino)-6-[(4-pyridyl)methylamino]-3-nitropyridine] |  | 93 | 74 | 151
O=[N+]([O-])c1ccc(N2CCC(O)CC2)nc1Nc1ccc(N2CCOCC2)cc1 [Compound 112, 2-(4-morpholinophenylamino)-6-(4-hydroxypiperidino)-3-nitropyridine] | 122 | 103 |  | 148
O=[N+]([O-])c1ccc(NCc2cccnc2)nc1Nc1ccc(N2CCOCC2)cc1 [Compound 115, 2-(4-morpholinophenylamino)-6-[(3-pyridyl)methylamino]-3-nitropyridine] | 127 |  | 89 | 148
O=[N+]([O-])c1ccc(NCCCn2ccnc2)nc1Nc1ccc(N2CCOCC2)cc1 [Compound 119, 2-(4-morpholinophenylamino)-6-[(3-imidazol-1-yl)propylamino]-3-nitropyridine] |  | 107 |  | 167
